Experimental data reported in patent US9045505B2, “Nitric oxide donors” (University of Otago, priority 2006, dated 2015).

Key:
liver mitochondria = assay: S-nitrosation of mitochondrial protein thiols (chemiluminescence SNO assay); assay type: biochemical, rat; conditions: for S-nitrosation of mitochondrial proteins: 2.5 min incubation, SNAP even at 50 μM
Protocol: FIG. 11 is a series of graphs showing S-nitrosation of mitochondrial thiols by MitoSNAP. (a) Time course of S-nitrosation of mitochondrial proteins by MitoSNAP. Liver mitochondria (1 mg protein) were incubated in 1 ml KCl buffer supplemented with rotenone and succinate in the presence of 5 μM MitoSNAP. At various times mitochondria were treated with 10 mM N-ethylmaleimide (NEM), isolated by centrifugation and the S-nitrosothiol content assessed. Data are of a typical experiment showing means±range of duplicate samples for each time point, each measured in duplicate. The experiment was repeated twice. (b) S-nitrosation of mitochondrial proteins by different concentrations of MitoSNAP and SNAP. Aliquots of liver mitochondria were incubated with the indicated concentrations of MitoSNAP or SNAP for […] in the presence or absence of 500 nM FCCP and then assessed for S-nitrosothiol content as in (a). For the +NEM sample, 10 mM NEM was added to the mitochondria and 1 min later 5 μM MitoSNAP was added and incubated for a further 2.5 min. Data are of a typical experiment showing means±range of duplicate samples for each time point, each measured in duplicate. The experiment was repeated twice. (c) S-nitrosation of cellular protein thiols by MitoSNAP. C2C12 cells were preincubated for 5 min in 2 ml cell culture medium containing either 20 μM FCCP or DMSO carrier, then 5 μM MitoSNAP or SNAP was added. After further incubation for 5 min at 37° C. in the dark, the medium was removed and the content of S-nitrosated proteins was measured. Data are means±range of the duplicate determinations. […] (d) S-nitrosation of a mitochondria-enriched cell subfraction. C2C12 cells were preincubated for 5 min in cell culture medium containing either 20 μM FCCP or dimethylsulfoxide (DMSO) carrier, then 5 μM MitoSNAP was added. After 5 min at 37° C. in the dark, the medium was removed and the cells were processed to isolate a mitochondria-enriched fraction and S-nitrosated protein was then determined Data are mean±sem of triplicate determinations (+MitoSNO1), or mean±range of duplicate determinations (+FCCP). (e & f) Visualisation of S-nitrosated mitochondrial proteins by copper/ascorbate-dependent labelling of thiols with a Cy3 fluorophore. Liver (e) or heart (f) mitochondria (1 mg protein) were incubated in 1 ml KCl buffer supplemented with rotenone and succinate in the presence of no additions, 10 μM MitoSNAP or 500 μM diamide for 5 min. S-nitrosated thiols were then selectively tagged with Cy3 maleimide and protein (10 μg) was then separated on a 12.5% SDS PAGE gel which was stained with coomassie blue and scanned for Cy3 fluorescence. The Cy3 fluorescence (SNO) and coomassie staining (coomassie) of each gel is shown.
FIG. 13 is a trace and graph showing limited S-nitrosation of mitochondria by DetaNONOate. […] Where indicated 500 μM DetaNONOate was added and the concentration of NO^• was measured over time, before 5 μM OxyHb was added. […] Then protein pellets were resuspended and processed for analysis of protein S-nitrosothiols. Control incubations in the presence of 10 mM NEM were also carried out. Data are means±range of two independent experiments each being the average of four mitochondrial incubations.
Nitrite, nitric oxide and S-nitrosothiol measurements. Nitrite was analyzed by the Griess assay (Molecular Probes). Nitric oxide was measured using an NO^• electrode (World Precision Instruments Ltd, UK) connected to an Apollo 4000 Free Radical Analyser. The electrode was inserted into a stirred, sealed 3 ml chamber with a Clark type O2 electrode (Rank Brothers, UK) built into its base and was thermostatted at 37° C. The NO^• electrode was calibrated by adding SNAP to argon-purged, saturated CuCl. OxyHb was prepared by reduction of bovine methemoglobin with sodium dithionite.

Jurkat cells = assay: Respiration of Jurkat cells (O2 electrode); assay type: cell-based; conditions: 5 μM; for effect on respiration by Jurkat cells: 37° C.
Protocol: FIG. 10 is a series of traces and graphs showing the effect of MitoSNAP on respiration in cells. (a-d) Jurkat cells (55×10^6 cells) were incubated in PBS supplemented with 25 mM Hepes pH 7.2 (NaOH), 1 mM sodium pyruvate, 10 μM neocuproine and 100 μM DTPA in the stirred 2.5 ml chamber of an oxygen electrode at 37° C. with 5 μM MitoSNAP (a), MitoNAP (b), SNAP (c) or MitoSNAP and FCCP (500 nM) (d). Where indicated 5 μM OxyHb was added. Traces show typical experiments that were repeated at least three times. Sections of the 02 electrode trace where OxyHb was added for (a) and (b) have been expanded 4-fold in the vertical dimension to facilitate inspection. In all traces the dashed line indicates anaerobiosis. (e) Effect of MitoSNAP on O2 bioavailability in hypoxia. HeLa cells were incubated at 1% O2 concentration with 5% CO2 and the balance N2 for […] before the indicated treatments. Cellular pO2 values, measured by fluorescence quenching oximetry and expressed as mean±sd, are shown. (**p<0.001 compared to hypoxia alone and to MitoNAP treatments by ANOVA).
Cell culture. Cells were grown in medium supplemented with 10% fetal calf serum (FCS), penicillin (100 U.ml^−1) and streptomycin (100 μg.ml^−1) at 37° C. in a humidified atmosphere of 95% air/5% CO2. Jurkat cells were cultured in Roswell park memorial institute (RPMI) 1640 medium supplemented with 2 mM Glutamax and 25 mM Hepes. HeLa cells were grown in minimum essential eagle medium (MEM) containing 2 mM glutamine and non-essential amino acids and were grown to 100% confluence prior to use. […]
To evaluate the selective uptake of MitoSNAP by mitochondria within cells, the effect of MitoSNAP on respiration by Jurkat cells, a T lymphocyte cell line that grows in suspension, was measured using an O2 electrode (FIG. 10). […] Then the effects of a further 30 min incubation with MitoSNAP, MitoNAP or the mitochondrial inhibitor myxathiazol on the steady-state extracellular pO2 was assessed by fluorescence quenching oximetry (FIG. 10e).

Structure (SMILES)	maximum S-nitrosation as share of the total number of protein thiols available (liver mitochondria; 5 μM) [%]	maximum extent of mitochondrial protein S-nitrosation (liver mitochondria; 5 μM) [pmol SNO/mg protein]	S-nitrosated proteins after sulfosalicylic acid lysis and precipitation (control experiment) (liver mitochondria; 5 μM, 5 min, mean±SEM of 4) [pmol SNO/mg protein]	time of peak S-nitrosation of mitochondrial proteins (liver mitochondria; 5 μM, liver mitochondria) [min]	S-nitrosation of mitochondrial proteins (liver mitochondria)	effect on respiration by Jurkat cells (Jurkat cells)	time for which a low O2 concentration was maintained (Jurkat cells; low O2 concentrations)
CC(=O)NC(C(=O)NCCCCC[P+](c1ccccc1)(c1ccccc1)c1ccccc1)C(C)(C)SN=O.CS(=O)(=O)[O-] (stereo not drawn) [MitoSNAP, [5-(2-acetylamino-3-methyl-3-nitrosothio-butyrylamino)-penty1]-triphenylphosphonium methanesulfonate]	~1	~500	359±89	2 to 3	extensive, concentration-dependent S-nitrosation	respiration rate decreased and approached zero	at least 30 min
CC(=O)NC(C(=O)O)C(C)(C)SN=O (racemic) [SNAP, S-nitroso-N-acetyl-DL-penicillamine, reference compound]					negligible S-nitrosation	had no effect on respiration	
